Reference: PubChem BioAssay (NCI)
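48-hour exposure; five concentrations; linearly interpolated endpoints. GI50 is the concentration that inhibits growth by half. The concentration for full growth arrest is given as TGI.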

What was measured:
Test in all cases: growth of human tumour cells (NCI), 48 h
A498 renal = test system: A498 renal
HL-60(TB) leukemia = test system: HL-60(TB) leukemia
HOP-92 NSCLC = test system: HOP-92 NSCLC
K-562 leukemia = test system: K-562 leukemia
NCI/ADR-RES ovarian = test system: NCI/ADR-RES ovarian
OVCAR-4 ovarian = test system: OVCAR-4 ovarian
SF-268 CNS = test system: SF-268 CNS
SK-MEL-5 melanoma = test system: SK-MEL-5 melanoma
SN12C renal = test system: SN12C renal
UACC-62 melanoma = test system: UACC-62 melanoma

## CN1CCC(n2cnc(-c3ccc(F)cc3)c2-c2ccnc(NCCO)n2)CC1
A498 renal
  GI50: 14.8 µM
  TGI: > 25 µM
HL-60(TB) leukemia
  GI50: > 25 µM
  TGI: > 25 µM
HOP-92 NSCLC
  GI50: 5.43 µM
  TGI: > 25 µM
K-562 leukemia
  GI50: 18.3 µM
  TGI: > 25 µM
NCI/ADR-RES ovarian
  GI50: > 25 µM
  TGI: > 25 µM
OVCAR-4 ovarian
  GI50: > 20.9 µM
  TGI: > 25 µM
SF-268 CNS
  GI50: 18.2 µM
  TGI: > 25 µM
SK-MEL-5 melanoma
  GI50: 17.2 µM
  TGI: > 25 µM
SN12C renal
  GI50: > 18.9 µM
  TGI: > 25 µM
UACC-62 melanoma
  GI50: > 21.6 µM
  TGI: > 25 µM

## COc1ccc(/C(C#N)=C/c2ccccc2OC)cc1
A498 renal
  GI50: 5.37 µM
  TGI: > 100 µM
HL-60(TB) leukemia
  GI50: 5.25 µM
  TGI: > 100 µM
HOP-92 NSCLC
  GI50: 4.57 µM
  TGI: 70.8 µM
K-562 leukemia
  GI50: 4.11 µM
  TGI: > 100 µM
NCI/ADR-RES ovarian
  GI50: 3.66 µM
  TGI: > 100 µM
OVCAR-4 ovarian
  GI50: 32.5 µM
  TGI: > 100 µM
SF-268 CNS
  GI50: 35.5 µM
  TGI: > 100 µM
SK-MEL-5 melanoma
  GI50: 9.25 µM
  TGI: > 100 µM
SN12C renal
  GI50: 21.1 µM
  TGI: > 100 µM
UACC-62 melanoma
  GI50: 7.36 µM
  TGI: > 100 µM

## CN(C)CCNc1c2c(c(NCCN(C)C)c3[nH]ccc13)C(=O)c1ccccc1C2=O
A498 renal
  GI50: 11.3 µM
  TGI: 25.1 µM
HL-60(TB) leukemia
  GI50: 1.39 µM
HOP-92 NSCLC
  GI50: 6.08 µM
  TGI: 28.5 µM
K-562 leukemia
  GI50: 0.654 µM
NCI/ADR-RES ovarian
  GI50: 0.887 µM
OVCAR-4 ovarian
  GI50: 1.05 µM
  TGI: 3.11 µM
SF-268 CNS
  GI50: 1.39 µM
  TGI: 5.91 µM
SK-MEL-5 melanoma
  GI50: 1.81 µM
  TGI: 3.88 µM
SN12C renal
  GI50: 0.519 µM
  TGI: 2.61 µM
UACC-62 melanoma
  GI50: 1.64 µM
  TGI: 14.8 µM

## Oc1cccc2ccc(N/N=C/c3cc(CN4CCCCC4)c(O)c4ncccc34)nc12
A498 renal
  GI50: 0.433 µM
  TGI: 14.1 µM
HL-60(TB) leukemia
  GI50: 0.0345 µM
  TGI: 1.29 µM
HOP-92 NSCLC
  GI50: 0.0165 µM
  TGI: 0.0857 µM
K-562 leukemia
  GI50: 0.0383 µM
  TGI: 11.1 µM
NCI/ADR-RES ovarian
  GI50: 0.0463 µM
  TGI: 1.06 µM
OVCAR-4 ovarian
  GI50: 0.162 µM
  TGI: 1.6 µM
SF-268 CNS
  GI50: 0.0635 µM
  TGI: 13.4 µM
SK-MEL-5 melanoma
  GI50: 0.0239 µM
  TGI: 0.0559 µM
SN12C renal
  GI50: 0.0931 µM
  TGI: 12.9 µM
UACC-62 melanoma
  GI50: 0.0459 µM
  TGI: 4.9 µM

## OC(c1cc(-c2ccccc2)nc2ccc(Cl)cc12)C1CCCCN1 (configuration not stated)
A498 renal
  GI50: 6.22 µM
  TGI: 20.3 µM
HL-60(TB) leukemia
  GI50: 2.26 µM
  TGI: 4.82 µM
HOP-92 NSCLC
  GI50: 2.02 µM
  TGI: 6.87 µM
K-562 leukemia
  GI50: 2.54 µM
  TGI: 7.01 µM
NCI/ADR-RES ovarian
  GI50: 2.25 µM
  TGI: 5.35 µM
OVCAR-4 ovarian
  GI50: 3.24 µM
  TGI: 8.96 µM
SF-268 CNS
  GI50: 3.06 µM
  TGI: 14 µM
SK-MEL-5 melanoma
  GI50: 1.91 µM
  TGI: 3.47 µM
SN12C renal
  GI50: 3.14 µM
  TGI: 10.6 µM
UACC-62 melanoma
  GI50: 1.88 µM
  TGI: 3.68 µM

## COc1ccc(-c2csc(N(C(=O)N3CCN(c4cc5c(cc4F)c(=O)c(C(=O)O)cn5C4CC4)CC3)c3ccccc3)n2)cc1
A498 renal
  GI50: 1.34 µM
  TGI: 6.42 µM
HL-60(TB) leukemia
  GI50: 2.34 µM
  TGI: 5.94 µM
HOP-92 NSCLC
  GI50: 0.597 µM
  TGI: 2.14 µM
K-562 leukemia
  GI50: 3.1 µM
  TGI: > 100 µM
NCI/ADR-RES ovarian
  GI50: 3.78 µM
  TGI: > 100 µM
OVCAR-4 ovarian
  GI50: 1.56 µM
  TGI: > 100 µM
SF-268 CNS
  GI50: 3.2 µM
  TGI: > 100 µM
SK-MEL-5 melanoma
  GI50: 2.86 µM
  TGI: 8.39 µM
SN12C renal
  GI50: 2.95 µM
  TGI: > 100 µM
UACC-62 melanoma
  GI50: 2.24 µM
  TGI: 8.91 µM

## O=C(NCCCCCCNC(=O)n1cc(F)c(=O)[nH]c1=O)NCCCOCCOCCOCCOCCOCCOCCOCCOCCOCCOCCOCCOCCOCCOCCOCCOCCOCCOCCOCCOCCOCCCNC(=O)C(O)C(O)C(O)C(O)CO (configuration not stated)
A498 renal
  TGI: > 42.1 µM
HL-60(TB) leukemia
  TGI: > 100 µM
HOP-92 NSCLC
  TGI: > 100 µM
K-562 leukemia
  TGI: > 100 µM
NCI/ADR-RES ovarian
  TGI: > 100 µM
OVCAR-4 ovarian
  TGI: > 100 µM
SF-268 CNS
  TGI: > 100 µM
SK-MEL-5 melanoma
  TGI: > 100 µM
SN12C renal
  TGI: > 100 µM
UACC-62 melanoma
  TGI: > 100 µM

## O=C(NCCO)Nc1ccc(-c2nc(N3CCOCC3)c3cccn3n2)cc1
A498 renal
  GI50: < 0.0373 µM
  TGI: 0.125 µM
HL-60(TB) leukemia
  GI50: 2.21 µM
  TGI: > 100 µM
HOP-92 NSCLC
  GI50: 0.0466 µM
  TGI: 1.09 µM
K-562 leukemia
  GI50: 2.8 µM
  TGI: > 100 µM
NCI/ADR-RES ovarian
  GI50: 2.25 µM
  TGI: > 33.7 µM
OVCAR-4 ovarian
  GI50: 0.0892 µM
  TGI: 3.75 µM
SF-268 CNS
  GI50: 0.164 µM
  TGI: > 95.9 µM
SK-MEL-5 melanoma
  GI50: 0.236 µM
  TGI: 3.67 µM
SN12C renal
  GI50: 0.567 µM
  TGI: > 100 µM
UACC-62 melanoma
  GI50: 0.0809 µM
  TGI: 1.84 µM
